Results on 43 compounds are retold here after PubChem BioAssay (NCI).

Each structure is given as a SMILES string.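 Dose response: 5 concentrations. Exposure: 48 h. Format: 96-well plates. Endpoint: linear interpolation; highest concentration if not reached. GI50 marks 50% less growth. Definition used: TGI = concentration required for complete inhibition of growth.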

In the assay the test system is MDA-MB-468 breast. Kind of assay: growth of human tumour cells (NCI), 48 h.
Consider `CN=C(N)c1ccc(N=C(N)c2ccc(-c3ccc(C(N)=Nc4ccc(C(N)=NC)cc4)cc3)cc2)cc1`, for which the GI50 is 74.4 µM and the TGI is more than 100 µM.

Consider `N#CCn1c(=O)c(Oc2ccc(F)cc2F)cc2cnc(NC3CCOCC3)nc21`, for which the GI50 is more than 18.9 µM and the TGI was more than 25 µM.

As for `CN1CCN(CC(=O)N(C)c2ccc(N=C(c3ccccc3)c3c(O)[nH]c4ccc(C#N)cc34)cc2)CC1`, the GI50 was 10.7 µM and the TGI was found to be 24.1 µM.

With `COc1cc(/C=C2\C(=O)N(Cc3ccc(Cl)cc3)c3ccccc32)cc(OC)c1OC`, the GI50 was 2.66 µM and the TGI came out at 8.06 µM.

With `COc1ccc(C(O)c2cc3c(N)c(C(=O)Nc4ccc(Cl)cc4)sc3nc2C)cc1` (stereo not given), the GI50 was 1.94 µM and the TGI came out at 8.87 µM.

Take `CCCCN(CCCC)C(=O)[C@H](CC)[C@@H]1CC[C@@H](C)[C@@H]([C@H](C)[C@@H](O)[C@@H](C)C(=O)[C@H](CC)C2O[C@]3(C=C[C@@H](O)[C@]4(CC[C@@](C)([C@H]5CC[C@](O)(CC)[C@H](C)O5)O4)O3)[C@H](C)C[C@@H]2C)O1` (stereo not given in full): the GI50 was 1.47 µM and the TGI came to 3.89 µM.

As for `COc1cc(-c2cc(/C=C/C(=O)c3ccc(F)c(F)c3)[nH]n2)cc(OC)c1OC`, the GI50 was 2.27 µM and the TGI was 9.47 µM.

For `O=C(Nc1ccc(Oc2ccc3nc(NC(=O)c4ccco4)[nH]c3c2)cc1)Nc1cc(C(F)(F)F)ccc1F`, the GI50 is 1.37 µM and the TGI is 11.5 µM.

`COc1cc2c(c(OC)c1OC)-c1ccc(NN(C(=O)c3ccccc3)C(=O)c3ccccc3)c(=O)cc1[C@@H](NC(C)=O)CC2` (tested in a mixture with another compound): the GI50 is 2.08 µM and the TGI came out at 6.71 µM.

Regarding `C#Cc1cccc(Nc2ncnc3cc(NC(=O)CCl)ccc23)c1`, the GI50 was 0.716 µM and the TGI amounted to 3.16 µM.

As to `O=C1/C(=C/c2ccc(Cl)c(Cl)c2)CN(C(=O)C(Cl)Cl)C/C1=C\c1ccc(Cl)c(Cl)c1`, the GI50 was 0.177 µM and the TGI came to 0.398 µM.

As to `Fc1ccc(-c2cc3nc(C(Cl)Cl)nc(-c4ccc(Cl)cc4)n3n2)cc1`, the GI50 was 1.73 µM and the TGI is 4.12 µM.

For `Clc1nccc2c(-c3csc(-c4c[nH]c5ccc(Br)cc45)n3)c[nH]c12`, the GI50 was 1.18 µM and the TGI was found to be 3.81 µM.

On to `COc1ccc(-c2cc(-c3ccc(Nc4nc(Nc5ccccc5)nc(Nc5ccc(Cl)cc5)n4)cc3)nc(N)n2)cc1`, for which the GI50 is 10.2 µM and the TGI amounted to 34.2 µM.

Consider `CCOC(=O)[C@@H](C)C[C@H](Cc1ccccc1)NC(=O)c1csc([C@@H](C[C@H](C(C)C)N(C)C(=O)[C@@H](NC(=O)[C@H]2CCCCN2C)C(C)(C)CC)OC(C)=O)n1`, for which the GI50 is less than 0.00167 µM.

As for `O=C1CC(c2c[nH]c3ccc(F)cc23)C(=O)N1` (stereo not given), the GI50 is more than 100 µM and the TGI is more than 100 µM.

As for `CO[C@H]1C[C@@H]2CC[C@@H](C)[C@@](O)(O2)C(=O)C(=O)N2CCCC[C@H]2C(=O)O[C@H]([C@H](C)C[C@@H]2CC[C@@H](OC(=O)C(C)(CO)CO)[C@H](OC)C2)CC(=O)[C@H](C)/C=C(\C)[C@@H](O)[C@@H](OC)C(=O)[C@H](C)C[C@H](C)\C=C/C=C/C=C/1C`, the GI50 was 0.00189 µM and the TGI is more than 10 µM.

Take `O=C1Nc2ccc(Br)cc2C12CC(c1ccccc1)=NN2` (stereo not given): the GI50 was 3.04 µM and the TGI was 41.8 µM.

With `COc1ccc2c(c1)OC(N)=C(C#N)C2c1cc(OC)c(OC)c(OC)c1` (stereo not given), the GI50 was 0.0239 µM and the TGI worked out at 0.0688 µM.

Regarding `COc1cc(CNCCCCCCN2C(=O)c3cccc4cccc(c34)C2=O)ccc1O`, the GI50 was 2.78 µM and the TGI is 9.33 µM.

`NS(=O)(=O)c1ccc(Nc2cc(-c3ccc(O)c(F)c3)[nH]n2)cc1`: the GI50 was 10.5 µM and the TGI was more than 25 µM.

For `CC(=O)Nc1ccc(C(=O)CCl)cc1`, the GI50 was 1.81 µM and the TGI was determined as 4.52 µM.

Take `CC1CC2C3CCC4=CC(=O)C=CC4(C)C3(F)C(O)CC2(C)C1(O)C(=O)COP(=O)(O)O` (stereo not given): the GI50 was more than 500 µM and the TGI is more than 500 µM.

For `COc1cc2cc(Oc3ccc(NC(=O)Nc4cc(C(F)(F)F)cc(C(F)(F)F)c4)cc3)c(C)nc2cc1OCCN1CCOCC1`, the GI50 was 1.22 µM and the TGI was determined as 3.76 µM.

Turning to `CC(C)(C)c1cc(C(=O)Nc2ccccc2C(=O)NCCN)cc(C(C)(C)C)c1`, the GI50 was 2.01 µM and the TGI is 3.59 µM.

As for `O=C1NC(=NCCc2ccc(F)cc2)S/C1=C\c1ccc2ncccc2c1`, the GI50 is more than 20.9 µM and the TGI is more than 25 µM.

`Oc1ccc(Cl)cc1C(c1cc(Cl)ccc1O)C(Cl)(Cl)Cl`: the GI50 is 2.58 µM and the TGI worked out at 8.11 µM.

On to `COC1(CC[C@@H](C)COC2OC(CO)C(O)C(O)C2O)O[C@H]2C[C@H]3[C@@H]4CC=C5C[C@@H](OC6OC(CO)C(OC7OC(C)C(O)C(O)C7O)C(O)C6OC6OC(C)C(O)C(O)C6O)CC[C@]5(C)[C@H]4CC[C@]3(C)[C@H]2[C@@H]1C` (stereo not given in full), for which the GI50 is 1.38 µM and the TGI was 3.01 µM.

With `COc1cnc2c(c1)C(=O)c1c-2n(CCCNC2=NCCS2)c(=O)c2cc(F)ccc12`, the GI50 was 0.19 µM and the TGI stood at 2.02 µM.

`COc1ccc2nc3cc(Cl)ccc3c(NCCCNCCO)c2c1`: the GI50 is 0.454 µM and the TGI came to 1.89 µM.

Turning to `COc1cc2c(c(OC)c1OC)-c1ccc(SC)c(=O)cc1[C@@H](N)CC2`, the GI50 is 0.0786 µM and the TGI was more than 100 µM.

`O=C(Nc1ccc(Oc2ccc(F)cc2)cc1)[C@@H]1C[C@@H](Cc2ccc(F)cc2)CN1C(=O)Cn1ccnn1`: the GI50 is 4.5 µM and the TGI turned out to be 29 µM.

As to `CC(C)=CCc1cc2c(cc1O)C1=C(C(=O)C3=C(C1=O)S(=O)(=O)CCN3)C(C=C(C)C)O2` (stereo not given), the GI50 is 0.54 µM and the TGI is 2.59 µM.

For `C=C1C(=O)O[C@H]2[C@H]1CC/C(COC(=O)c1cc(OC)c(OC)c(OC)c1)=C\CC[C@@]1(C)O[C@@H]21`, the GI50 is 0.344 µM and the TGI turned out to be 2.02 µM.

As for `c1cc(N[C@@H]2CCNC2)nc(-c2cnc3ccc(-c4cn[nH]c4)cn23)c1`, the GI50 was 0.957 µM and the TGI was found to be 2.52 µM.

In the case of `CSC1=NC(=Nc2c(C)cccc2C)C2(CCC(C(C)(C)C)CC2)N1c1ccc(Cl)cc1` (stereo not given), the GI50 was 4.83 µM and the TGI is more than 100 µM.

Consider `c1ccc(-c2oc(-c3ccccc3)c(CN3CCCCC3)c2CN2CCCCC2)cc1`, for which the GI50 was 1.45 µM and the TGI is 3.98 µM.

As to `O=C1Nc2ccc(Cl)cc2/C1=C\c1c(-c2ccc(Cl)cc2)nc2sc(C3CC3)nn12`, the GI50 was 6.68 µM and the TGI was 21.2 µM.

For the compound `O=C1NC(=NCc2ccccc2Cl)S/C1=C\c1ccc2ncccc2c1`, the GI50 is 3.61 µM and the TGI was more than 25 µM.

For the compound `NCCN1CCN(c2nc(-c3ccccc3)nc3nc(-c4ccccc4)oc23)CC1`, the GI50 is 1.63 µM and the TGI was determined as 3.2 µM.

`CN(C)c1ccc(/C=C\c2ccnc3ccccc23)cc1`: the GI50 is 0.233 µM and the TGI came to 0.564 µM.

Consider `COc1cc2oc(-c3cccc(C(=O)Nc4ccc(Cl)cc4)c3)cc(=O)c2c(OC)c1OC`, for which the GI50 is 3.64 µM and the TGI was determined as 85.7 µM.

Consider `CCOCC1(COCC)CCC(c2[nH]ncc2CN(C)CCNC)CC1`, for which the GI50 is 46.6 µM and the TGI was more than 100 µM.
